Laboratory results reported in patent US5332734A, “Oxazinone derivative” (Japan Tobacco, Incorporated, priority 1991, dated 1994).

What was measured:
Type in all cases: biochemical
[1] = target: T1, human leukocyte elastase (HLE) (Homo sapiens, UniProt P08246); assay: HLE inhibitory activity; conditions: HLE 5.63 nM, substrate 0.2625 mM, pH 8.6, 37° C.
T1 construct: applying a density gradient centrifugal operation so as to obtain neutrophils; from tissue; host or cells: neutrophils from human venous blood
T1 sequence (P08246 30-267): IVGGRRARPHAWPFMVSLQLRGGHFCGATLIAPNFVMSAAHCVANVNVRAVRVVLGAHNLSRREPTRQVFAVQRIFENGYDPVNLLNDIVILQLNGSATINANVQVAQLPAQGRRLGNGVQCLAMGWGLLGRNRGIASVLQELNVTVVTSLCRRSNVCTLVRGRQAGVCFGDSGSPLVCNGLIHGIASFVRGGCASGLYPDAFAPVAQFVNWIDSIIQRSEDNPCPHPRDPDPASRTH
Description: (§1) Inhibotory activities of the oxadinone derivative of the present invention against human leukocyte elastase (HLE), human sputum elastase (HSE), human cathepsin G (HCG), bovine pancreatic α-chymotrypsin (CYT) and bovine pancreatic trypsin (TRY) were measured as follows:
(1) Measurement of HLE Inhibitory Activity
A buffy coat was obtained by subjecting human vein blood to centrifugal separation, followed by adding distilled water to the buffy coat thus obtained for performing a low tension treatment so as to collapse erythrocytes. A mixture consisting of 10 parts of a 33.4% Conrey 400 solution and 24 parts of 9% of Ficoll solution was added to the residual blood cell component, followed by applying a density gradient centrifugal operation so as to obtain neutrophils. The neutrophil fraction was washed three times with Hanks' buffer so as to recover cells, which were frozen at -80° C. for preservation until the cells were used. The cells preserved under a frozen state were thawed with warm water of 37° C. and suspended in the lysis buffer (0.1M Tris-HCl pH 7.5, 1M MgCl2, 0.1% Brij 35), the amount of the buffer being 9 times as much as that of the cells. Then, the suspended cells were collapsed with polotron while cooling the suspension with ice. Then, the suspension was subjected to a centrifugal separation at 100,000×g for one hour so as to remove the precipitate. Also, a buffer (5 mM Tris-HCl pH 7.5, 1M NaCl, 1.1% Brij 35) was added to the supernatant in an amount twice as much as the supernatant so as to prepare a crude solution of an enzyme extract. The crude solution of an enzyme extract was adsorbed on an aprotinin affinity column. Further, the active fraction eluted with a 50 ml glycine-HCl solution (pH 3.3, 1M NaCl, 0.1% Brij 35) was passed through a MONO S ion-exchange chromatography. The active fraction eluted with a 2M NaCl linear gradient was dialyzed and, then, subjected to a freeze-drying so as to prepare an enzyme sample.
A test compound to be detected was dissolved in DMSO (for fluorometry) so as to prepare solutions of various concentrations. Then, the solution of 0.2M Tris-HCl (pH 9.6) was added to each of the solutions in an amount twice as much as the solution so as to prepare a test solution. On the other hand, a synthetic substrate (MeOSuc-Ala-Pro-Val-pNA; FUNAKOSHI) was dissolved in DMSO, followed by adding 0.2M tris-HCl solution (pH 8.6) to the solution in an amount twice as much as the solution so as to prepare a substrate solution.
A microplate (NUNK) provided with 96 wells was used for the reaction. The reaction was repeatedly carried out 6 times for each concentration of the test compound. Each of 140 μl of the enzyme solution (0.2M Tris-HCl, pH 8.6), 30 μl of the test material solution and 30 μl of the substrate solution was pre-incubated for 10 minutes at 37° C. for each well of the microplate. After incubation of a mixture of the enzyme solution and the test material solution for 10 minutes, the substrate solution was added so as to carry out the enzyme reaction. For determining the substrate decomposition, the absorbance (405 run) of the released pNA was measured by a microplate reader (MTP-100; CORONA), and the substrate decomposition was calculated on the basis of the average value of the absorbances repeatedly measured 6 times. The inhibitory concentration of the test compound relative to the decomposition amount of the substrate in the case where the test compound was not added was obtained as IC50 value.

human cathepsin G (HCG) = target: T2, human cathepsin G (HCG) (Homo sapiens, UniProt P08311); assay: HCG inhibitory activity; conditions: HCG 50 nM, substrate 0.5 mM, pH 7.5
T2 construct: purchased Cosmo Bio Inc
T2 sequence (P08311 21-255): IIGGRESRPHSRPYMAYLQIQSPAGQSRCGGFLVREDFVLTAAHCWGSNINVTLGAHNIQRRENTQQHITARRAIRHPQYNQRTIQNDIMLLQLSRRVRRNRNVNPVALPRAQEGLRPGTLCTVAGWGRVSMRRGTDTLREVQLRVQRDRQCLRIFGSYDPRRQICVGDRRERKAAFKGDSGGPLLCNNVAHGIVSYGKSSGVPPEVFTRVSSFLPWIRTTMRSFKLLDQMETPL
Description: as §1
(3) Measurement of HCG Inhibitory Activity
a) Enzyme Preparing Method Bought from Cosmo Bio Inc.
(§2) Employed was a measuring method similar to that described previously in conjunction with the measurement of the HLE inhibiting activity, except that used was a buffer solution of pH 7.5. The final concentrations of HCG and the synthetic substrate (Ac-Ala-Ala-Pro-Phe-pNA; FUNAKOSHI) in the solution of the enzyme reaction were 50 nM and 0.5 mM, respectively.

[2] = target: T3, bovine pancreatic α-chymotrypsin (CYT) (Bos taurus, UniProt P00766); assay: CYT inhibitory activity; conditions: CYT 3.4 nM, substrate 0.273 mM, pH 8.0
T3 construct: purchased Sigma Inc; host or cells: bovine pancreas (by its name)
Description: as §1
(4) Measurement of CYT Inhibitory Activity
a) Enzyme Preparing Method Bought from Sigma Inc.
as §2, with “8.0.” for “7.5.”, “CYT” for “HCG”, “3.4” for “50”, “0.273” for “0.5”

IC50 [1] [nM]	IC50 (human cathepsin G (HCG)) [nM]	IC50 [2] [nM]	SMILES
510	> 27500	3430	Cc1cccc2nc([C@@H](NC(=O)COC3c4ccccc4-c4ccccc43)C(C)C)oc(=O)c12 [Compound 3, 2-{1(S)-[(9-fluorenyloxyacetyl)amino]-2-methylpropyl}-5-methyl-4H-3,1-benzoxazin-4-one]
750	11300	6580	Cc1cccc2nc([C@@H](NC(=O)CNC(=O)C3c4ccccc4-c4ccccc43)C(C)C)oc(=O)c12 [Compound 4, 2-[1(S)-[[N-(9-fluorenylcarbonyl)glycyl]amino]-2-methylpropyl]-5-methyl-4H-3,1-benzoxazin-4-one]
240	> 12300	1960	CC(=O)N(CCC(=O)N[C@H](c1nc2cccc(C)c2c(=O)o1)C(C)C)C1c2ccccc2-c2ccccc21 [Compound 5, 2-[1(S)-[[N-acetyl-N-(9-fluorenyl)-β-alanyl]amino]-2-methylpropyl]-5-methyl-4H-3,1-benzoxazin-4-one]
640			Cc1cccc2nc([C@@H](NC(=O)C=C3c4ccccc4-c4ccccc43)C(C)C)oc(=O)c12 [Compound 6, 2-{1(S)-[(fluorene-Δ^9, ^α -acetyl)amino]-2-methylpropyl}-5-methyl-4H-3,1-benzoxazin-4-one]
1280	> 7590	> 7590	Cc1cccc2nc(CNC(=O)COC3c4ccccc4-c4ccccc43)oc(=O)c12 [Compound 7, 2-[(9-fluorenyloxyacetyl)aminomethyl]-5-methyl-4H-3,1-benzoxazin-4-one]
1000			Cc1cccc2nc(C(C)(C)NC(=O)COC3c4ccccc4-c4ccccc43)oc(=O)c12 [Compound 8, 2-{1-[(9-fluorenyloxyacetyl)amino]-1-methylethyl}-5-methyl-4H-3,1-benzoxazin-4-one]
